Data published in ChEMBL document CHEMBL6127144, “Optimization of a Piperidine CD4-Mimetic Scaffold Sensitizing HIV-1 Infected Cells to Antibody-Dependent Cellular Cytotoxicity” (ACS Med Chem Lett, 2024).
Calls of active or inactive are those of the source. No cut-off for these calls is given here.

How the values were obtained:
[1] = tested on: Human immunodeficiency virus 1; test: Antiviral activity against HIV-1 CH58TF infected in human TZM-bl cells assessed as inhibition of viral growth incubated for 48 hrs by luminometer based neutralization assay; type: functional, organism-based; conditions: Human immunodeficiency virus 1, CH58TF
[2] = tested on: Human immunodeficiency virus 1; test: Antiviral activity against HIV-1 AD8 infected in human TZM-bl cells assessed as inhibition of viral growth incubated for 48 hrs by luminometer based neutralization assay; type: functional, organism-based; conditions: Human immunodeficiency virus 1, AD8, TZM-bl
[3] = tested on: Human immunodeficiency virus 1; test: Antiviral activity against HIV-1 JRFL infected in human primary CD4+ T cell co-cultured with KHYG-1 cells assessed as inhibition of viral growth at 50 uM incubated for 4 to 6 hrs in presence of HIV+ plasma by flow cytometric analysis; type: functional, organism-based; conditions: time 4-6 hrs
[4] = tested on: CD4+ T cell; test: Binding affinity to 17b Antibody in HIV-1 AD8 infected human primary CD4+ T cell co-cultured with KHYG-1 cells assessed as antibody driven cell cytotoxicity at 50 uM incubated for 4 to 6 hrs by Alexa Fluor 647 staining based flow cytometric analysis; conditions: time 4-6 hrs
[5] = tested on: Moloney murine leukemia virus; test: Antiviral activity against Moloney murine leukemia virus infected in human TZM-bl cells assessed as inhibition of viral growth incubated for 48 hrs by luminometer based neutralization assay; type: functional, organism-based
[6] = tested on: CD4+ T cell; test: Binding affinity to 17b Antibody in HIV-1 JRFL infected human primary CD4+ T cell co-cultured with KHYG-1 cells assessed as antibody driven cell cytotoxicity at 50 uM incubated for 4 to 6 hrs by Alexa Fluor 647 staining based flow cytometric analysis; conditions: time 4-6 hrs
[7] = tested on: CD4+ T cell; test: Binding affinity to 17b Antibody in HIV-1 CH58TF infected human primary CD4+ T cell co-cultured with KHYG-1 cells assessed as antibody driven cell cytotoxicity at 50 uM incubated for 4 to 6 hrs by Alexa Fluor 647 staining based flow cytometric analysis; conditions: time 4-6 hrs
[8] = tested on: Human immunodeficiency virus 1; test: Antiviral activity against HIV-1 CH58TF infected in human primary CD4+ T cell co-cultured with KHYG-1 cells assessed as inhibition of viral growth at 50 uM incubated for 4 to 6 hrs in presence of HIV+ plasma by flow cytometric analysis; type: functional, organism-based; conditions: time 4-6 hrs
[9] = tested on: Human immunodeficiency virus 1; test: Antiviral activity against HIV-1 JRFL infected in human TZM-bl cells assessed as inhibition of viral growth incubated for 48 hrs by luminometer based neutralization assay; type: functional, organism-based; conditions: Human immunodeficiency virus 1, JRFL
[10] = tested on: TZM; test: Cytotoxicity against human TZM-bl cells upto 100 uM incubated for 48 hrs by cell-titer glo luminescent assay; type: toxicity, cell-based
[11] = tested on: CD4+ T cell; test: Binding affinity to 17b Antibody in HIV-1 JRFL infected human primary CD4+ T cell by measuring median fluorescence intensity at 50 uM incubated for 48 hrs by Alexa Fluor 647 staining based flow cytometric analysis
[12] = tested on: CD4+ T cell; test: Binding affinity to 17b Antibody in HIV-1 AD8 infected human primary CD4+ T cell by measuring median fluorescence intensity at 50 uM incubated for 48 hrs by Alexa Fluor 647 staining based flow cytometric analysis
[13] = tested on: CD4+ T cell; test: Binding affinity to 17b Antibody in HIV-1 AD8 infected human primary CD4+ T cell at 50 uM incubated for 48 hrs by Alexa Fluor 647 staining based flow cytometric analysis
[14] = tested on: CD4+ T cell; test: Binding affinity to 17b Antibody in HIV-1 JRFL infected human primary CD4+ T cell at 50 uM incubated for 48 hrs by Alexa Fluor 647 staining based flow cytometric analysis
[15] = tested on: Human immunodeficiency virus 1; test: Antiviral activity against HIV-1 AD8 infected in human primary CD4+ T cell co-cultured with KHYG-1 cells assessed as inhibition of viral growth at 50 uM incubated for 4 to 6 hrs in presence of HIV+ plasma by flow cytometric analysis; type: functional, organism-based; conditions: time 4-6 hrs

N=C(N)NCC(=O)N1CCN(C(=O)N2CCC[C@H](C(=O)Nc3ccc(Cl)c(F)c3)C2)CC1
IC50 [1]: 0.15 µM
IC50 [2]: 1.99 µM
Activity [3]: inactive
Activity [4]: Active
IC50 [5]: > 100 µM
Activity [6]: Active
Activity [7]: Active
Activity [8]: Active
IC50 [9]: 10.7 µM
Activity [10]: Non-Toxic

N=C(N)N1CCC[C@@H]1C(=O)N1CCN(C(=O)N2C[C@H](CO)C[C@H](C(=O)Nc3ccc(Cl)c(F)c3)C2)CC1
IC50 [2]: > 100 µM

CCN1CCN(C(=O)N2CCC[C@H](C(=O)Nc3ccc(Cl)c(F)c3)C2)CC1
Flu intensity [11]: 1.36
Flu intensity [12]: 1.23

O=C(Nc1ccc(Cl)c(F)c1)[C@H]1CCCN(C(=O)N(CCO)CCO)C1
Flu intensity [11]: 1.04
Flu intensity [12]: 1.27

O=C(Nc1ccc(Cl)c(F)c1)[C@H]1CCCN(C(=O)N2CCN(CC(=O)N3CCCC3)CC2)C1
Flu intensity [11]: 1.3
Flu intensity [12]: 1.52

O=C(Nc1ccc(Cl)c(F)c1)[C@H]1CCCN(C(=O)c2c[nH]cn2)C1
Flu intensity [11]: 0.93
Flu intensity [12]: 1.07

N=C(N)NCC(=O)N1CCN(C(=O)N2C[C@H](CO)C[C@H](C(=O)Nc3ccc(Cl)c(F)c3)C2)CC1
IC50 [2]: 38.6 µM

C[C@H](N)C(=O)N1CCN(C(=O)N2CCC[C@H](C(=O)Nc3ccc(Cl)c(F)c3)C2)CC1
Flu intensity [11]: 2.02
IC50 [2]: 1.83 µM
Flu intensity [12]: 2.53
IC50 [9]: 5.62 µM

O=C(Nc1ccc(Cl)c(F)c1)[C@H]1CCCN(C(=O)N2CCC[C@H]2CO)C1
Flu intensity [11]: 1.11
Flu intensity [12]: 1.26

O=C(Nc1ccc(Cl)c(F)c1)[C@H]1CCCN(C(=O)c2ccncc2)C1
Flu intensity [11]: 0.95
Flu intensity [12]: 1.25

O=C(Nc1ccc(Cl)c(F)c1)[C@H]1CCCN(C(=O)N2CCCCC2)C1
Flu intensity [11]: 0.96
Flu intensity [12]: 1.19

NC(=O)[C@@H]1CCCN1C(=O)N1CCC[C@H](C(=O)Nc2ccc(Cl)c(F)c2)C1
Flu intensity [11]: 1.01
Flu intensity [12]: 1.23

N[C@@H](Cc1ccc(O)cc1)C(=O)N1CCN(C(=O)N2CCC[C@H](C(=O)Nc3ccc(Cl)c(F)c3)C2)CC1
Flu intensity [11]: 2.19
IC50 [2]: 2.18 µM
Flu intensity [12]: 2.48
IC50 [9]: 28 µM

N=C(N)NCCC[C@H](N)C(=O)N1CCN(C(=O)N2CCC[C@H](C(=O)Nc3ccc(Cl)c(F)c3)C2)CC1
IC50 [1]: 0.22 µM
Flu intensity [11]: 1.61
IC50 [2]: 1.27 µM
Flu intensity [12]: 2.23
Activity [4]: Active
IC50 [5]: > 100 µM
Activity [7]: Active
Activity [8]: Active
IC50 [9]: ≥ 72.6 µM
Activity [10]: Non-Toxic

CN(C)CCCN1CCN(C(=O)N2CCC[C@H](C(=O)Nc3ccc(Cl)c(F)c3)C2)CC1
Flu intensity [11]: 1.42
Flu intensity [12]: 1.39

O=C(Nc1ccc(Cl)c(F)c1)[C@H]1CCCN(C(=O)N2CCN(c3ncccn3)CC2)C1
Activity [13]: inactive
Activity [14]: inactive

CNCc1ccc2c(c1)C[C@H](CNC(=N)N)[C@H]2NC(=O)C(=O)Nc1ccc(Cl)c(F)c1
IC50 [1]: 0.07 µM
IC50 [2]: 0.95 µM
IC50 [5]: > 100 µM
Activity [7]: Active
Activity [8]: Active
IC50 [9]: 4.6 µM

O=C(Nc1ccc(Cl)c(F)c1)[C@H]1CCCN(C(=O)N2CCOCC2)C1
Flu intensity [11]: 1.05
Flu intensity [12]: 1.49

NCCNC(=O)N1CCC[C@H](C(=O)Nc2ccc(Cl)c(F)c2)C1
IC50 [1]: 1.77 µM
IC50 [2]: > 100 µM
Activity [4]: inactive
IC50 [5]: > 100 µM
Activity [7]: Active
Activity [8]: Active
IC50 [9]: > 100 µM
Activity [15]: inactive

O=C(Nc1ccc(Cl)c(F)c1)[C@H]1CCCN(C(=O)N2CCN(c3cccc(C(F)(F)F)c3)CC2)C1
Activity [13]: inactive
Activity [14]: inactive

N=C(N)N1CCC[C@@H]1C(=O)N1CCN(C(=O)N2CCC[C@H](C(=O)Nc3ccc(Cl)c(F)c3)C2)CC1
IC50 [1]: 0.14 µM
IC50 [2]: 2.92 µM
Activity [3]: inactive
Activity [4]: Active
IC50 [5]: > 100 µM
Activity [6]: Active
Activity [7]: Active
Activity [8]: Active
IC50 [9]: 8.28 µM
Activity [15]: Active
Activity [10]: Non-Toxic

CC(=O)NCSC[C@H](N)C(=O)N1CCN(C(=O)N2CCC[C@H](C(=O)Nc3ccc(Cl)c(F)c3)C2)CC1
Flu intensity [11]: 1.55
IC50 [2]: 1.86 µM
Flu intensity [12]: 1.75
Activity [4]: Active
IC50 [9]: 40 µM

COCCN1CCN(C(=O)N2CCC[C@H](C(=O)Nc3ccc(Cl)c(F)c3)C2)CC1
Flu intensity [11]: 1.43
Flu intensity [12]: 1.28

NC(=O)C[C@H](N)C(=O)N1CCN(C(=O)N2CCC[C@H](C(=O)Nc3ccc(Cl)c(F)c3)C2)CC1
Flu intensity [11]: 1.53
IC50 [2]: 6.21 µM
Flu intensity [12]: 2.14
IC50 [9]: 24.6 µM

C[C@@H](O)[C@H](N)C(=O)N1CCN(C(=O)N2CCC[C@H](C(=O)Nc3ccc(Cl)c(F)c3)C2)CC1
Flu intensity [11]: inactive
IC50 [2]: 1.55 µM
Flu intensity [12]: inactive
IC50 [9]: 13.7 µM

O=C(Nc1ccc(Cl)c(F)c1)[C@H]1CCCN(C(=O)N2CCN(c3ccccc3)CC2)C1
Activity [13]: inactive
Activity [14]: inactive

CN1CCN(C(=O)N2CCC[C@H](C(=O)Nc3ccc(Cl)c(F)c3)C2)CC1
Flu intensity [11]: 1.14
Flu intensity [12]: 1.5

O=C(Nc1ccc(Cl)c(F)c1)[C@H]1CCCN(C(=O)N2CCN(c3ccccn3)CC2)C1
Activity [13]: inactive
Activity [14]: inactive
